Measurements as given in patent US20230183239A1, “ECTONUCLEOTIDE PYROPHOSPHATASE-PHOSPHODIESTERASE 1 (ENPP-1) INHIBITORS AND USES THEREOF” (AbbVie Inc., priority 2017, published 2023).

Legend:
Type in all cases: biochemical
ENPP1 [1] = target: T1, ENPP1 (Homo sapiens, UniProt P22413); assay: Substrate selectivity ratio, inhibition of cGAMP hydrolysis versus ATP hydrolysis; details: ratio Ki AMP-pNP / Ki cGAMP
T1 sequence (P22413 1-925): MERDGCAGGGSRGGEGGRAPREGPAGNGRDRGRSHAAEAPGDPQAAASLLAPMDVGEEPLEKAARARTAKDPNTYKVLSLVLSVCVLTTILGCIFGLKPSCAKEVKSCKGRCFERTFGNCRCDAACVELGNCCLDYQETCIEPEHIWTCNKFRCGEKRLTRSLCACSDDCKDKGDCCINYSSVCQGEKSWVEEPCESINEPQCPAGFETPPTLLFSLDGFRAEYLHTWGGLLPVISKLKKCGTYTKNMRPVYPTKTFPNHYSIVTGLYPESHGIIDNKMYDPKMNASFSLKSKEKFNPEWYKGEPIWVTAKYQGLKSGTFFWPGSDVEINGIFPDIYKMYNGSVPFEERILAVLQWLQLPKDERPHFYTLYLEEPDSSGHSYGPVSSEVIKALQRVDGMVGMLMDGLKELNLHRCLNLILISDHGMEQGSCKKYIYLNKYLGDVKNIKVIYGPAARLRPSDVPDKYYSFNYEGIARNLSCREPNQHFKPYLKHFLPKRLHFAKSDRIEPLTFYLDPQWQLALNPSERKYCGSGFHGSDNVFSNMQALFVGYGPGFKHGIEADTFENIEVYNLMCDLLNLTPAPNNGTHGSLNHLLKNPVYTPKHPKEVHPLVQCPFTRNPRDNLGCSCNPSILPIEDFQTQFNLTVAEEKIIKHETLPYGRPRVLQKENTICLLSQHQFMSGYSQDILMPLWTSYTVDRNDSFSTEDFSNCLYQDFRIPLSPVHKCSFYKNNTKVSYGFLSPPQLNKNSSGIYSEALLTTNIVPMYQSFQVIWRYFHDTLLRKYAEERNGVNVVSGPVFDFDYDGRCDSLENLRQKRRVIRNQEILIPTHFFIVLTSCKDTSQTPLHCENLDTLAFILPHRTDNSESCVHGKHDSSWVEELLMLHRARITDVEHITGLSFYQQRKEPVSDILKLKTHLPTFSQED
Experimental: The selectivity ratios for inhibition of cGAMP hydrolysis versus ATP hydrolysis were then calculated as follows: […]

ENPP1 [2] = target: T1, ENPP1; assay: ENPP1 enzyme assay with AMP-pNP substrate (hydrolysis of ATP analog); details: AMP-pNP substrate (ATP analog); Ki from IC50 by Cheng-Prusoff; read-out: ENPP1 Inhibition _AMP-pNP: Ki
Outline: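 Reactions ran 20 min at 37 °C, pH 8.5 Tris buffer with NaCl, CaCl2, ZnCl2, using 300 µM AMP-pNP and 60 ng/well recombinant human ENPP1; inhibitor range 10 µM–30 pM, duplicates.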

ENPP1 [3] = target: T1, ENPP1; assay: Indirect quantitation of 2',3'-cGAMP hydrolysis (AMP-Glo Assay kit); details: cGAMP substrate; Ki from IC50 by Cheng-Prusoff; read-out: ENPP1 Inhibition -cGAMP: Ki

Structure (SMILES)	Substrate Selectivity: Ki_AMP-pNP/Ki_cGAMP (ENPP1 [1])	Ki (ENPP1 [2]) [nM]	Ki (ENPP1 [3]) [nM]
COc1cc2nccc(N3CCC(CCNS(N)(=O)=O)CC3)c2cn1 [Example 204, N-(2-(1-(7-methoxy-1,6-naphthyridin-4-yl)piperidin-4-yl)ethyl)sulfamide]	> 39.4	> 1000	100 to 1000
NS(=O)(=O)N1CCC2(CCN(c3ccnc4cc(OC(F)F)ccc34)CC2)C1 [Example 265, 8-(7-(difluoromethoxy)quinolin-4-yl)-2,8-diazaspiro[4.5]decane-2-sulfonamide]	>13.0	> 1000	100 to 1000
COc1cc2nccc(-c3ccc(CN(C)S(N)(=O)=O)cc3)c2cc1OC [Example 61, N-(4-(6,7-dimethoxyquinolin-4-yl)benzyl)-N-methylsulfamide]	23.7	< 100	< 100
COc1cc2ncnc(N3CCC(CCNS(N)(=O)=O)CC3)c2cc1Cl [Example 169, N-(2-(1-(6-chloro-7-methoxyquinazolin-4-yl)piperidin-4-yl)ethyl)sulfamide]	6.9	100 to 1000	< 100
COc1ccc2c(Oc3ccc(S(=N)(=O)O)cc3F)ccnc2c1 [Example 382, 3-fluoro-4-((7-methoxyquinolin-4-yl)oxy)benzene sulfonamide]	>142	> 1000	< 100
COc1ccc2c(-c3ccc(CS(N)(=O)=O)cc3)ccnc2c1 [Example 406, (4-(7-methoxy quinolin-4-yl)phenyl)methane sulfonamide]	>65	> 1000	100 to 1000
COc1cc2c(N3CCC(CCNS(N)(=O)=O)CC3)ncnc2cn1 [Example 189, N-(2-(1-(6-methoxypyrido[3,4-d]pyrimidin-4-yl)piperidin-4-yl)ethyl)sulfamide]	> 27.0	> 1000	100 to 1000
COc1cc2ncc(F)c(N3CCC(CCNS(N)(=O)=O)CC3)c2cc1OC [Example 66, N-(2-(1-(3-fluoro-6,7-dimethoxyquinolin-4-yl)piperidin-4-yl)ethyl)sulfamide]	35.1	< 100	< 100
COc1cc2nccc(N3CC4(C3)CN(S(N)(=O)=O)C4)c2cc1OC [Example 214, 6-(6,7-dimethoxyquinolin-4-yl)-2,6-diazaspiro[3.3]heptane-2-sulfonamide]	> 15.3	> 1000	100 to 1000
COc1ccc2c(-c3ccc4c(c3)CN(S(N)(=O)=O)CC4)ccnc2c1 [Example 305, 7-(7-methoxyquinolin-4-yl)-3,4-dihydroisoquinoline-2(1H)-sulfonamide]	>13.0	100 to 1000	< 100
COc1cc2ncnc(N3CCC(CCNS(=O)(=O)NC(C)=O)CC3)c2cc1OC [Example 200, N-(N-(2-(1-(6,7-dimethoxyquinazolin-4-yl)piperidin-4-yl)ethyl)sulfamoyl)acetamide]	>64.2	> 1000	100 to 1000
COc1ccc2c(N3CCc4cc(N(C)S(N)(=O)=O)ccc43)ccnc2c1 [Example 418, N-(1-(7-methoxyquinolin-4-yl)indolin-5-yl)-N-methylsulfamide]	>40	100 to 1000	< 100
NS(=O)(=O)N1CCC2(CCN(c3ncnc4ccc(F)cc34)CC2)C1 [Example 288, 8-(6-fluoroquinazolin-4-yl)-2,8-diazaspiro[4.5]decane-2-sulfonamide]	27.9	100 to 1000	< 100
COc1cc2nccc(N3CCC(CCNS(=O)(=O)NC(C)=O)CC3)c2cc1OC [Example 203, N-(N-(2-(1-(6,7-dimethoxyquinolin-4-yl)piperidin-4-yl)ethyl)sulfamoyl)acetamide]	> 33.7	> 1000	100 to 1000
COc1cc2nccc(-c3ccc(CN(O)C=O)cc3)c2cc1OC [Example 284, N-(4-(6,7-dimethoxyquinolin-4-yl)benzyl)-N-hydroxyformamide]	28.6	< 100	< 100
COc1ccc2c(-c3ccc(CN(C4CC4)S(N)(=O)=O)cc3)ccnc2c1 [Example 289, N-cyclopropyl-N-(4-(7-methoxyquinolin-4-yl)benzyl)sulfamide]	> 626	> 1000	< 100

Continued, values first:

Substrate Selectivity: Ki_AMP-pNP/Ki_cGAMP (ENPP1 [1])	Ki (ENPP1 [2]) [nM]	Ki (ENPP1 [3]) [nM]	Structure (SMILES)
55	> 1000	< 100	COc1ccc2c(Oc3ncc(NS(N)(=O)=O)cc3C)ccnc2c1 [Example 351, N-(6-((7-methoxyquinolin-4-yl)oxy)-5-methylpyridin-3-yl)sulfamide]
> 126	> 1000	100 to 1000	COc1cc2nccc(N3CCCc4cc(NS(N)(=O)=O)ccc43)c2cc1OC [Example 291, N-(6′,7′-dimethoxy-3,4-dihydro-2H-[1,4′-biquinolin]-6-yl)sulfamide]
> 25.0	> 1000	100 to 1000	COc1cc2nccc(OCc3ccc(NS(N)(=O)=O)cc3)c2cc1OC [Example 191, N-(4-(((6,7-dimethoxyquinolin-4-yl)oxy)methyl)phenyl) sulfamide]
23.3	100 to 1000	< 100	COc1cc2ncnc(NCCc3ccc(NS(N)(=O)=O)cc3)c2cc1OC [Example 156, N-(4-(2-((6,7-dimethoxyquinazolin-4-yl)amino)ethyl)phenyl) sulfamide]
>28.3	100 to 1000	< 100	COc1cc2ncnc(-c3ccc(CN(C4CC4)S(N)(=O)=O)cc3)c2cc1OC [Example 285, N-cyclopropyl-N-(4-(6,7-dimethoxyquinazolin-4-yl)benzyl)sulfamide]
>14	> 1000	100 to 1000	COc1ccc2c(Oc3ccc(NS(N)(=O)=O)cc3)c(C(F)(F)F)cnc2c1 [Example 407, N-(4-((7-methoxy-3-(trifluoromethyl)quinolin-4-yl)oxy)phenyl)sulfamide]
51.9	100 to 1000	< 100	COc1ccc2c(Oc3ccc(NS(N)(=O)=O)cc3)ncnc2n1 [Example 227, N-(4-((7-methoxypyrido[2,3-d]pyrimidin-4-yl)oxy)phenyl)sulfamide]
>20	> 1000	100 to 1000	COc1ccc2c(-c3ccc(NS(N)(=O)=O)cc3)ccnc2c1 [Example 396, N-(4-(7-methoxyquinolin-4-yl)phenyl)sulfamide]
24.7	100 to 1000	< 100	COc1cc2ncnc(NCc3ccc(S(N)(=O)=O)cc3)c2cc1OC [Example 182, 4-(((6,7-dimethoxyquinazolin-4-yl)amino)methyl)benzene sulfonamide]
109	100 to 1000	< 100	COc1cc2ncnc(NC(C)c3ccc(NS(N)(=O)=O)cc3)c2cc1F (stereo not drawn) [Example 236, N-(4-(1-((6-fluoro-7-methoxyquinazolin-4-yl)amino)ethyl)phenyl)sulfamide]
>28.0	> 1000	100 to 1000	COc1ccc2ncnc(-c3ccc(CNS(N)(=O)=O)cc3)c2c1 [Example 264, N-(4-(6-methoxyquinazolin-4-yl)benzyl)sulfamide]
48.4	< 100	< 100	COc1cc2nccc(-c3ccc(CNS(N)(=O)=O)cc3)c2cc1OC [Example 225, N-(4-(6,7-dimethoxyquinolin-4-yl)benzyl)sulfamide]
25.1	100 to 1000	< 100	COc1cc2ncnc(NC(C)c3ccc(NS(N)(=O)=O)cc3)c2cc1OC (stereo not drawn) [Example 140, N-(4-(1-((6,7-dimethoxyquinazolin-4-yl)amino)ethyl)phenyl) sulfamide]
